Holding throughout (type): cell-based
One assay has as its system EGFR p-Tyr1068. Description: EGFR phosphorylation (Tyr1068) in MDA-MB-231 cells, western blot. The following applies: 30 min pretreatment, 50 ng/mL EGF 5 min. The procedure: (§1) The EDA peptides were first tested to see if they could downregulate EGFR activation. Receptor activation was monitored as a function of EGFR autophosphorylation on Tyr1068 in intact MDA-MB-231 cells (Fig. 5a and b and S3 Fig.). The receptor was stimulated with EGF for 5 min following a 30 min peptide pretreatment.
Fig 5 EDA2 down-regulates activated EGFR and reduces cell viability. (a) Cells were stimulated with 50 ng/mL EGF for 5 min in the presence or absence of EDA peptides, followed by western blotting. An apparent decrease in phosphorylated EGFR was observed when treated with EDA2. Vertical lines indicate non-adjacent samples from the same western blot. […] Data is plotted as the average of at least three experiments, where error bars represent SEM. * p < 0.05, ** p < 0.01 relative to the EGF-stimulated control. […] (c) A panel of cell lines was dosed daily with EDA2 or gefitinib for 5 days, and viability was quantified using the Cell Titer Blue assay. […]
Proteins were separated by 8% SDS-PAGE then transferred onto PVDF membrane. […] Bands were visualized by chemiluminescence and quantified using Licor Image Studio Lite. […] Significance values were calculated using two-way ANOVA with Bonferonni multiple-comparison test. […] Significance values were calculated using one-way ANOVA with Bonferonni multiple-comparison test. […]
Background: Immunoblotting shows a protein as a band on a membrane.

In a further assay the target is T1, total EGFR (Homo sapiens, UniProt P00533).
T1 construct: EGFR autophosphorylation on Tyr1068 in intact MDA-MB-231 cells; endogenous in cells; host or cells: MDA-MB-231 (ATCC)
Description: Total EGFR protein levels in MDA-MB-231 cells, western blot. Particulars: peptide 30 min, 50 ng/mL EGF 5 min, western blot normalized to tubulin, average of two experiments. How it is done: as §1
While EDA2 downregulates receptor phosphorylation, we also wanted to investigate whether EGFR dimerization itself was inhibited. As a strategy to measure the number of detectable EGFR dimers in intact cells, a quantitative Proximity Ligation Assay (PLA) was performed (Fig. 6). Cells were stimulated with EGF in the presence or absence of EDA2 or its scramble control (EDA2-Scr). […] Fluorescence microscopy was used to visualize the DAPI and PLA signals.
Proteins were separated by 8% SDS-PAGE then transferred onto PVDF membrane. […] Bands were visualized by chemiluminescence and quantified using Licor Image Studio Lite. […] Significance values were calculated using two-way ANOVA with Bonferonni multiple-comparison test. […] Significance values were calculated using one-way ANOVA with Bonferonni multiple-comparison test.
Supplementary file pone.0118796.s004.tif: S4 Fig The effect of EDA2 and its controls on total EGFR protein levels in the cell. […] Cells were immediately lysed and total EGFR levels were analyzed by western blotting. […]

For the next assay, the system named is PC-3 cells. The assay is described as follows: Cell viability, Cell Titer Blue, PC-3. Particulars: 6.25 μM, dosed daily for 5 days, average of quadruplicates. How it is done:
(§2) Fig 5 EDA2 down-regulates activated EGFR and reduces cell viability. (a) Cells were stimulated with 50 ng/mL EGF for 5 min in the presence or absence of EDA peptides, followed by western blotting. An apparent decrease in phosphorylated EGFR was observed when treated with EDA2. Vertical lines indicate non-adjacent samples from the same western blot. […] Data is plotted as the average of at least three experiments, where error bars represent SEM. * p < 0.05, ** p < 0.01 relative to the EGF-stimulated control. All remaining means are not significant (p > 0.05) relative to the EGF-stimulated control. (c) A panel of cell lines was dosed daily with EDA2 or gefitinib for 5 days, and viability was quantified using the Cell Titer Blue assay. […]
(§3) Since EDA2 appeared to downregulate EGFR phosphorylation, we sought to determine whether this activity could also lead to a decrease in cell viability (Fig. 5c). Three diverse, EGFR-expressing cell lines (MDA-MB-231, PC-3, and BxPC-3) were dosed daily with EDA2 over a 0–50 μM concentration range over a five-day time course, after which cell viability was quantified using the Cell Titer Blue assay. […]
(§4) MDA-MB-231, PC-3, or Bx-PC3 cells were seeded at 7,500 cells/well in a 96 well plate and allowed to adhere in RPMI-1640 containing 1% FBS. […] Fluorescence was quantified using 530 nm excitation and 590 nm emission filters. […]
A general note: Alamar Blue is a resazurin reagent that responds to reducing activity.

The test system of the next assay is MDA-MB-231 cells. Description: Cell viability, Cell Titer Blue, MDA-MB-231. The following applies: 6.25 μM, dosed daily for 5 days, average of quadruplicates. How it is done:
as §2, §3, §4

The next assay deals with BxPC-3 cells. The assay is described as follows: Cell viability, Cell Titer Blue, BxPC-3. Particulars: 6.25 μM, dosed daily for 5 days, average of quadruplicates. How it is done:
as §2, §3, §4

Positions of bridges follow the written chain, without caps; N, C: chain ends. Non-standard residues stand in square brackets, D forms with d. Residues, ends and D or L forms follow the SMILES beside them. Triazole bridges read from a SMILES are 1,4-linked. *: point of attachment. 5FAM = O=C1OC2(c3ccc(O)cc3Oc3cc(O)ccc32)c2ccc(C(=O)*)cc21; Aha = [N-]=[N+]=NCC[C@H](N)C(=O)O; Nle = CCCC[C@H](N)C(=O)O; Pra = C#CC[C@H](N)C(=O)O; βAla = NCCC(=O)O

`CCCC[C@H](NC(=O)[C@H](CCC(N)=O)NC(=O)[C@H](Cc1ccc(O)cc1)NC(=O)[C@@H](NC(=O)[C@@H](NC(=O)[C@@H]1CCCN1C(=O)[C@H](CC(N)=O)NC(=O)[C@H](Cc1ccc(O)cc1)NC(=O)[C@H](C)NC(=O)CCNC(=O)c1ccc2c(c1)C(=O)OC21c2ccc(O)cc2Oc2cc(O)ccc21)[C@@H](C)O)[C@@H](C)O)C(=O)N[C@@H](C)C(N)=O` [non-modified control, reference compound] ({5FAM-βAla}-AYNPTTYQ[Nle]A-NH2): in the assay with EGFR p-Tyr1068 (0.05, 0.5 or 5 μM peptide, western blot), the “effect on EGFR phosphorylation (Tyr1068) (in words)” value is “no inhibitory effect”.
`CCCC[C@@H]1NC(=O)[C@H](CCC(N)=O)NC(=O)[C@H](Cc2ccc(O)cc2)NC(=O)[C@H]([C@@H](C)O)NC(=O)[C@H]([C@@H](C)O)NC(=O)[C@@H]2CCCN2C(=O)[C@H](CC(N)=O)NC(=O)[C@H](Cc2ccc(O)cc2)NC(=O)[C@@H](NC(=O)c2ccc3c(c2)C(=O)OC32c3ccc(O)cc3Oc3cc(O)ccc32)Cc2cn(nn2)CC[C@@H](C(N)=O)NC1=O` [EDA2] (5FAM-[Pra]YNPTTYQ[Nle][Aha]-NH2; triazole 1-10): the “effect on EGFR expression (total EGFR) (in words)” value on total EGFR is on record as “no effect”. In addition, the entries for the “reduction of cell viability” value with PC-3 cells, in the assay on MDA-MB-231 cells and with BxPC-3 cells were 72%, 50% and 34%, respectively. Also, in the assay on EGFR p-Tyr1068 (5 μM peptide, normalized to tubulin, average of at least three experiments), the “reduction of EGFR phosphorylation (Tyr1068) compared to untreated cells” value is reported as “greater than 60%”.

The values above are taken from PMC4366150, “Inhibiting EGFR Dimerization Using Triazolyl-Bridged Dimerization Arm Mimics” (PLoS ONE, 2015).
